Source: EP0097439A2, “A crystalline prostaglandin salt” (THE UPJOHN COMPANY, priority 1982, dated 1984)
Read-outs that look alike come from different tables or passages of the source.

Assay: Plasma levels of 9-deoxo-16,16-dimethyl-9-methylene-PGE2 by radioimmunoassay after insertion of a suppository
Assay type: in vivo, Rhesus monkeys (Macaca mulatta)
Settings: for concentration at 0.25 h / concentration at 1 h / concentration at 1.5 h / concentration at 2 h / concentration at 3 h / concentration at 4 h / concentration at 6 h / concentration at 24 h / concentration at 0.5 h: rhesus monkey, plasma, 30 mg, read-out: Drug Levels
Excerpt: A. Midtrimester pregnant female Rhesus monkeys (Macaca mulatta) are used. (The first day of menstrual bleeding is designated Day 1 of the menstrual cycle; the first day a female is placed with a male for breeding is designated Day 1 of pregnancy. Pregnancy is confirmed by abdominal palpation of the uterus.)
Blood samples are collected into heparinized syringes at specified times following insertion of a suppository in pregnant or non- pregnant monkeys. Plasma is extracted and assayed for 9-deoxo-16,16-dimethyl-9-methylene-PGE2 content by radioimmunoassay.
C. Six suppository lots are prepared (4), each containing 9- deoxo-16,16-dimethyl-9-methylene-PGE2 or its crystalline potassium salt (Examples 1 and 2). Two lots are made with Witepsol H15 alone as the suppository base, two with Witepsol HIS wax plus 2% colloidal silicon dioxide (CSD) and two with Witepsol H15 plus 2% CSD plus 10% triacetin. Suppositories are prepared using Witepsol H15 suppository wax. Free acid or potassium salt is dispersed in the hot wax using a homogenizer. Two percent colloidal silicon dioxide (CSD) is mixed in by further homogenization. In the third formulation, triacetin (10%) is added before the CSD and then homogenized for one minute. Suppositories are formed in 800 mg aluminum molds and are stored at 4°C until used.
D. The plasma levels of 9-deoxo-16,16-d1methy1-9-methy1ene-PGE2 in monkeys treated with 6 formulations containing either 9-deoxo-16,16-dimethyl-9-methylene-PGE2 free acid or potassium salt are shown in Tables 1-6. In general, higher blood levels are measured in pregnant Rhesus monkeys than in non-pregnant monkeys.

[1] = Monkey #1, 30 mg Free Acid in H15 Suppositories
[2] = Monkey #2, 30 mg Free Acid in H15 Suppositories
[3] = Monkey #3 (pregnant animal with uterine recording), 30 mg Free Acid in H15 Suppositories
[4] = Monkey #7, 30 mg Free Acid in H15 Plus 2% CSD Suppositories
[5] = Monkey #8, 30 mg Free Acid in H15 Plus 2% CSD Suppositories
[6] = Monkey #9 (pregnant animal with uterine recording), 30 mg Free Acid in H15 Plus 2% CSD Suppositories
[7] = Monkey #13, 30 mg Free Acid in H15 Plus 2% CSD + 10% Triacetin Suppositories
[8] = Monkey #14, 30 mg Free Acid in H15 Plus 2% CSD + 10% Triacetin Suppositories
[9] = Monkey #15 (pregnant animal with uterine recording), 30 mg Free Acid in H15 Plus 2% CSD + 10% Triacetin Suppositories

Structure (SMILES): C=C1C[C@@H](O)[C@H](/C=C/[C@@H](O)C(C)(C)CCCC)[C@H]1C/C=C\CCCC(=O)O [Free Acid, 9-deoxo-16,16-dimethyl-9-methylene-PGE2]
- bioavailability (drug plasma levels and uterine activity), free acid versus potassium salt (Rhesus monkeys, 30 mg (acid equivalents) per dose in three suppository formulations): equally bioavailable
- concentration at 0.25 h [1]: 5.14 ng/mL
- concentration at 1 h (Monkey #1, 1.0 Hours, 30 mg Free Acid in H15 Suppositories): 4.39 ng/mL
- concentration at 1.5 h [1]: 7.89 ng/mL
- concentration at 2 h (Monkey #1, 2.0 Hours, 30 mg Free Acid in H15 Suppositories): 4.16 ng/mL
- concentration at 3 h (Monkey #1, 3.0 Hours, 30 mg Free Acid in H15 Suppositories): 0.23 ng/mL
- concentration at 4 h (Monkey #1, 4.0 Hours, 30 mg Free Acid in H15 Suppositories): 7.43 ng/mL
- concentration at 6 h (Monkey #1, 6.0 Hours, 30 mg Free Acid in H15 Suppositories): 10.1 ng/mL
- concentration at 24 h (Monkey #1, 24.0 Hours, 30 mg Free Acid in H15 Suppositories): 7.68 ng/mL
- concentration at 0.5 h (Monkey #1, .5 Hours, 30 mg Free Acid in H15 Suppositories): 1.69 ng/mL
- concentration at 0.25 h [2]: 0.61 ng/mL
- concentration at 1.5 h [2]: 3.35 ng/mL
- concentration at 2 h (Monkey #2, 2.0 Hours, 30 mg Free Acid in H15 Suppositories): 5.56 ng/mL
- concentration at 3 h (Monkey #2, 3.0 Hours, 30 mg Free Acid in H15 Suppositories): 13 ng/mL
- concentration at 4 h (Monkey #2, 4.0 Hours, 30 mg Free Acid in H15 Suppositories): 14.7 ng/mL
- concentration at 6 h (Monkey #2, 6.0 Hours, 30 mg Free Acid in H15 Suppositories): 17.3 ng/mL
- concentration at 24 h (Monkey #2, 24.0 Hours, 30 mg Free Acid in H15 Suppositories): 4.97 ng/mL
- concentration at 0.25 h [3]: 142 ng/mL
- concentration at 1 h (Monkey #3 (pregnant animal with uterine recording), 1.0 Hours, 30 mg Free Acid in H15 Suppositories): 93.9 ng/mL
- concentration at 1.5 h [3]: 66.8 ng/mL
- concentration at 2 h (Monkey #3 (pregnant animal with uterine recording), 2.0 Hours, 30 mg Free Acid in H15 Suppositories): 60.8 ng/mL
- concentration at 3 h (Monkey #3 (pregnant animal with uterine recording), 3.0 Hours, 30 mg Free Acid in H15 Suppositories): 56.1 ng/mL
- concentration at 4 h (Monkey #3 (pregnant animal with uterine recording), 4.0 Hours, 30 mg Free Acid in H15 Suppositories): 35.7 ng/mL
- concentration at 6 h (Monkey #3 (pregnant animal with uterine recording), 6.0 Hours, 30 mg Free Acid in H15 Suppositories): 13.7 ng/mL
- concentration at 24 h (Monkey #3 (pregnant animal with uterine recording), 24.0 Hours, 30 mg Free Acid in H15 Suppositories): 5.67 ng/mL
- concentration at 0.5 h (Monkey #3 (pregnant animal with uterine recording), .5 Hours, 30 mg Free Acid in H15 Suppositories): 63.6 ng/mL
- concentration at 0.25 h [4]: 39.2 ng/mL
- concentration at 0.5 h (Monkey #7, 0.5 Hours, 30 mg Free Acid in H15 Plus 2% CSD Suppositories): 44.5 ng/mL
- concentration at 1 h (Monkey #7, 1.0 Hours, 30 mg Free Acid in H15 Plus 2% CSD Suppositories): 63.9 ng/mL
- concentration at 1.5 h [4]: 42.2 ng/mL
- concentration at 2 h (Monkey #7, 2 Hours, 30 mg Free Acid in H15 Plus 2% CSD Suppositories): 37 ng/mL
- concentration at 3 h (Monkey #7, 3 Hours, 30 mg Free Acid in H15 Plus 2% CSD Suppositories): 16.9 ng/mL
- concentration at 4 h (Monkey #7, 4 Hours, 30 mg Free Acid in H15 Plus 2% CSD Suppositories): 13.2 ng/mL
- concentration at 6 h (Monkey #7, 6 Hours, 30 mg Free Acid in H15 Plus 2% CSD Suppositories): 6.5 ng/mL
- concentration at 24 h (Monkey #7, 24 Hours, 30 mg Free Acid in H15 Plus 2% CSD Suppositories): 4.01 ng/mL
- concentration at 0.25 h [5]: 51.4 ng/mL
- concentration at 0.5 h (Monkey #8, 0.5 Hours, 30 mg Free Acid in H15 Plus 2% CSD Suppositories): 134 ng/mL
- concentration at 1 h (Monkey #8, 1.0 Hours, 30 mg Free Acid in H15 Plus 2% CSD Suppositories): 88.2 ng/mL
- concentration at 1.5 h [5]: 61.1 ng/mL
- concentration at 2 h (Monkey #8, 2 Hours, 30 mg Free Acid in H15 Plus 2% CSD Suppositories): 78.3 ng/mL
- concentration at 3 h (Monkey #8, 3 Hours, 30 mg Free Acid in H15 Plus 2% CSD Suppositories): 29.1 ng/mL
- concentration at 4 h (Monkey #8, 4 Hours, 30 mg Free Acid in H15 Plus 2% CSD Suppositories): 12.4 ng/mL
- concentration at 6 h (Monkey #8, 6 Hours, 30 mg Free Acid in H15 Plus 2% CSD Suppositories): 2.49 ng/mL
- concentration at 24 h (Monkey #8, 24 Hours, 30 mg Free Acid in H15 Plus 2% CSD Suppositories): 15.7 ng/mL
- concentration at 0.25 h [6]: 60.7 ng/mL
- concentration at 0.5 h (Monkey #9 (pregnant animal with uterine recording), 0.5 Hours, 30 mg Free Acid in H15 Plus 2% CSD Suppositories): 52.2 ng/mL
- concentration at 1 h (Monkey #9 (pregnant animal with uterine recording), 1.0 Hours, 30 mg Free Acid in H15 Plus 2% CSD Suppositories): 63.1 ng/mL
- concentration at 1.5 h [6]: 62.8 ng/mL
- concentration at 2 h (Monkey #9 (pregnant animal with uterine recording), 2 Hours, 30 mg Free Acid in H15 Plus 2% CSD Suppositories): 62.9 ng/mL
- concentration at 3 h (Monkey #9 (pregnant animal with uterine recording), 3 Hours, 30 mg Free Acid in H15 Plus 2% CSD Suppositories): 40.2 ng/mL
- concentration at 4 h (Monkey #9 (pregnant animal with uterine recording), 4 Hours, 30 mg Free Acid in H15 Plus 2% CSD Suppositories): 57.8 ng/mL
- concentration at 6 h (Monkey #9 (pregnant animal with uterine recording), 6 Hours, 30 mg Free Acid in H15 Plus 2% CSD Suppositories): 32 ng/mL
- concentration at 24 h (Monkey #9 (pregnant animal with uterine recording), 24 Hours, 30 mg Free Acid in H15 Plus 2% CSD Suppositories): 21 ng/mL
- concentration at 0.25 h [7]: 12.6 ng/mL
- concentration at 0.5 h (Monkey #13, 0.5 Hours, 30 mg Free Acid in H15 Plus 2% CSD + 10% Triacetin Suppositories): 9.25 ng/mL
- concentration at 1 h (Monkey #13, 1 Hours, 30 mg Free Acid in H15 Plus 2% CSD + 10% Triacetin Suppositories): 2.8 ng/mL
- concentration at 1.5 h [7]: 3.09 ng/mL
- concentration at 2 h (Monkey #13, 2 Hours, 30 mg Free Acid in H15 Plus 2% CSD + 10% Triacetin Suppositories): 5.46 ng/mL
- concentration at 3 h (Monkey #13, 3 Hours, 30 mg Free Acid in H15 Plus 2% CSD + 10% Triacetin Suppositories): 15.1 ng/mL
- concentration at 4 h (Monkey #13, 4 Hours, 30 mg Free Acid in H15 Plus 2% CSD + 10% Triacetin Suppositories): 22.5 ng/mL
- concentration at 6 h (Monkey #13, 6 Hours, 30 mg Free Acid in H15 Plus 2% CSD + 10% Triacetin Suppositories): 23.8 ng/mL
- concentration at 24 h (Monkey #13, 24 Hours, 30 mg Free Acid in H15 Plus 2% CSD + 10% Triacetin Suppositories): 26 ng/mL
- concentration at 0.25 h [8]: 18.8 ng/mL
- concentration at 0.5 h (Monkey #14, 0.5 Hours, 30 mg Free Acid in H15 Plus 2% CSD + 10% Triacetin Suppositories): 36 ng/mL
- concentration at 1 h (Monkey #14, 1 Hours, 30 mg Free Acid in H15 Plus 2% CSD + 10% Triacetin Suppositories): 25.1 ng/mL
- concentration at 1.5 h [8]: 32 ng/mL
- concentration at 2 h (Monkey #14, 2 Hours, 30 mg Free Acid in H15 Plus 2% CSD + 10% Triacetin Suppositories): 28.7 ng/mL
- concentration at 3 h (Monkey #14, 3 Hours, 30 mg Free Acid in H15 Plus 2% CSD + 10% Triacetin Suppositories): 20.2 ng/mL
- concentration at 4 h (Monkey #14, 4 Hours, 30 mg Free Acid in H15 Plus 2% CSD + 10% Triacetin Suppositories): 16.6 ng/mL
- concentration at 6 h (Monkey #14, 6 Hours, 30 mg Free Acid in H15 Plus 2% CSD + 10% Triacetin Suppositories): 16.2 ng/mL
- concentration at 24 h (Monkey #14, 24 Hours, 30 mg Free Acid in H15 Plus 2% CSD + 10% Triacetin Suppositories): 12.9 ng/mL
- concentration at 0.25 h [9]: 119 ng/mL
- concentration at 0.5 h (Monkey #15 (pregnant animal with uterine recording), 0.5 Hours, 30 mg Free Acid in H15 Plus 2% CSD + 10% Triacetin Suppositories): 154 ng/mL
- concentration at 1 h (Monkey #15 (pregnant animal with uterine recording), 1 Hours, 30 mg Free Acid in H15 Plus 2% CSD + 10% Triacetin Suppositories): 154 ng/mL
- concentration at 1.5 h [9]: 26.8 ng/mL
- concentration at 2 h (Monkey #15 (pregnant animal with uterine recording), 2 Hours, 30 mg Free Acid in H15 Plus 2% CSD + 10% Triacetin Suppositories): 44.8 ng/mL
- concentration at 3 h (Monkey #15 (pregnant animal with uterine recording), 3 Hours, 30 mg Free Acid in H15 Plus 2% CSD + 10% Triacetin Suppositories): 65.9 ng/mL
- concentration at 4 h (Monkey #15 (pregnant animal with uterine recording), 4 Hours, 30 mg Free Acid in H15 Plus 2% CSD + 10% Triacetin Suppositories): 22.1 ng/mL
- concentration at 6 h (Monkey #15 (pregnant animal with uterine recording), 6 Hours, 30 mg Free Acid in H15 Plus 2% CSD + 10% Triacetin Suppositories): 13 ng/mL
- concentration at 24 h (Monkey #15 (pregnant animal with uterine recording), 24 Hours, 30 mg Free Acid in H15 Plus 2% CSD + 10% Triacetin Suppositories): 2.76 ng/mL
